The text below walks through data of patent publication US9422277B2, “Tricyclic substituted thiadiazine dioxide compounds as BACE inhibitors, compositions and their use” (Merck Sharp & Dohme Corp., priority 2012, dated 2016).

Molecules are shown by their SMILES.

One series has as its target human P-glycoprotein (Homo sapiens (Human), UniProt P08183). The series can be described thus: Efflux by human P-glycoprotein (Pgp Mdr1 efflux ratio). In kind it is in vitro ADME.
For series [1], the target named is soluble human BACE1 catalytic domain (Homo sapiens (Human), UniProt P56817). Put plainly: BACE1 HTRF FRET Assay. In kind it is biochemical. The following applies: Ki calculated from IC50 using the Cheng-Prusoff equation. The text has this: A homogeneous time-resolved FRET assay can be used to determine IC50 values for inhibitors of the soluble human BACE1 catalytic domain. This assay monitors the increase of 620 nm fluorescence that resulted from BACE1 cleavage of an APPswedish APP^swe mutant peptide FRET substrate (QSY7-[…]-Europium-amide). This substrate contains an N-terminal QSY7 moiety that serves as a quencher of the C-terminal Europium fluorophore (620 nm Em). In the absence of enzyme activity, 620 nm fluorescence is low in the assay and increased linearly over 3 hours in the presence of uninhibited BACE1 enzyme Inhibition of BACE1 cleavage of the QSY7-APP^swe-Eu substrate by inhibitors is manifested as a suppression of 620 nm fluorescence.
Reactions are initiated by addition of 10 μl of 600 nM QSY7-APP^swe-Eu substrate (200 nM final) to give a final reaction volume of 30 μl in a 384 well Nunc HTRF plate. The reactions are incubated at 30° C. for 1.5 hours. The 620 nm fluorescence is then read on a Rubystar HTRF plate reader (BMG Labtechnologies) using a 50 millisecond delay followed by a 400 millisecond acquisition time window Inhibitor IC50 values are derived from non-linear regression analysis of concentration response curves.

Series [2] addresses purified human autoBACE-2 (Homo sapiens (Human), UniProt Q9Y5Z0). The series can be described thus: BACE-2 Assay (BACE-HTRF assay). The series is classed as biochemical. Particulars: Ki calculated from IC50 using the Cheng-Prusoff equation; read-out: BACE2 Ki. The method, then:
Inhibitor IC50s at purified human autoBACE-2 are determined in a time-resolved endpoint proteolysis assay that measures hydrolysis of the QSY7-[…]-Eu-amide FRET peptide substrate (BACE-HTRF assay). BACE-mediated hydrolysis of this peptide results in an increase in relative fluorescence (RFU) at 620 nm after excitation with 320 nm light Inhibitor compounds, prepared at 3× the desired final concentration in 1×BACE assay buffer (20 mM sodium acetate pH 5.0, 10% glycerol, 0.1% Brij-35) supplemented with 7.5% DMSO are pre-incubated with an equal volume of autoBACE-2 enzyme diluted in 1×BACE assay buffer (final enzyme concentration 1 nM) in black 384-well NUNC plates for 30 minutes at 30° C. […] DMSO is present at 5% final concentration in the assay. Following laser excitation of sample wells at 320 nm, the fluorescence signal at 620 nm is collected for 400 ms following a 50 μs delay on a RUBYstar HTRF plate reader (BMG Labtechnologies). Raw RFU data is normalized to maximum (1.0 nM BACE/DMSO) and minimum (no enzyme/DMSO) RFU values. IC50s are determined by nonlinear regression analysis (sigmoidal dose response, variable slope) of percent inhibition data with minimum and maximum values set to 0 and 100 percent respectively. Similar IC50s are obtained when using raw RFU data. The Ki values are calculated from the IC50 using the Cheng-Prusoff equation.

Chain of purified human autoBACE-2 (Q9Y5Z0 63-473 limits assumed): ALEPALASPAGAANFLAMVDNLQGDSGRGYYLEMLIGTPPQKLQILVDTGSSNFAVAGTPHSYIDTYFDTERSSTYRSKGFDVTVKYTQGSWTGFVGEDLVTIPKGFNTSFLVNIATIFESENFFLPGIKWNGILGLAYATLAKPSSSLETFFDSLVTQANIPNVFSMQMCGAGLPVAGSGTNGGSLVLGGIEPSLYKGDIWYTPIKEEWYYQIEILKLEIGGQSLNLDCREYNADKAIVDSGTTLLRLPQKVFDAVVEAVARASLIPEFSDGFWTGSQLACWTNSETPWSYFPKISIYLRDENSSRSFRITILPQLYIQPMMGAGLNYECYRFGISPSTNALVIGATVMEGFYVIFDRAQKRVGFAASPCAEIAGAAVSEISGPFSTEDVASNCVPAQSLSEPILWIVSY
Chain of soluble human BACE1 catalytic domain (P56817 75-416): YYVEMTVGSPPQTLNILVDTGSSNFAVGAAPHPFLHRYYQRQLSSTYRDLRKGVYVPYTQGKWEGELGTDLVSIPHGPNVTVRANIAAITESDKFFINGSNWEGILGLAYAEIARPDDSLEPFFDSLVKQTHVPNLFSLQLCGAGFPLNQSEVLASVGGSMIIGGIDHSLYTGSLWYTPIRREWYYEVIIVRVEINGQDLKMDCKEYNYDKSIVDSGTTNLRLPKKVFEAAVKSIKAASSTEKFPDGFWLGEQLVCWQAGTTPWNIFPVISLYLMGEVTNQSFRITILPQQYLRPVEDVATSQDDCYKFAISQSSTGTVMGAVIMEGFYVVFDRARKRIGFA
Chain of human P-glycoprotein (P08183 whole entry, the tested form may be a part): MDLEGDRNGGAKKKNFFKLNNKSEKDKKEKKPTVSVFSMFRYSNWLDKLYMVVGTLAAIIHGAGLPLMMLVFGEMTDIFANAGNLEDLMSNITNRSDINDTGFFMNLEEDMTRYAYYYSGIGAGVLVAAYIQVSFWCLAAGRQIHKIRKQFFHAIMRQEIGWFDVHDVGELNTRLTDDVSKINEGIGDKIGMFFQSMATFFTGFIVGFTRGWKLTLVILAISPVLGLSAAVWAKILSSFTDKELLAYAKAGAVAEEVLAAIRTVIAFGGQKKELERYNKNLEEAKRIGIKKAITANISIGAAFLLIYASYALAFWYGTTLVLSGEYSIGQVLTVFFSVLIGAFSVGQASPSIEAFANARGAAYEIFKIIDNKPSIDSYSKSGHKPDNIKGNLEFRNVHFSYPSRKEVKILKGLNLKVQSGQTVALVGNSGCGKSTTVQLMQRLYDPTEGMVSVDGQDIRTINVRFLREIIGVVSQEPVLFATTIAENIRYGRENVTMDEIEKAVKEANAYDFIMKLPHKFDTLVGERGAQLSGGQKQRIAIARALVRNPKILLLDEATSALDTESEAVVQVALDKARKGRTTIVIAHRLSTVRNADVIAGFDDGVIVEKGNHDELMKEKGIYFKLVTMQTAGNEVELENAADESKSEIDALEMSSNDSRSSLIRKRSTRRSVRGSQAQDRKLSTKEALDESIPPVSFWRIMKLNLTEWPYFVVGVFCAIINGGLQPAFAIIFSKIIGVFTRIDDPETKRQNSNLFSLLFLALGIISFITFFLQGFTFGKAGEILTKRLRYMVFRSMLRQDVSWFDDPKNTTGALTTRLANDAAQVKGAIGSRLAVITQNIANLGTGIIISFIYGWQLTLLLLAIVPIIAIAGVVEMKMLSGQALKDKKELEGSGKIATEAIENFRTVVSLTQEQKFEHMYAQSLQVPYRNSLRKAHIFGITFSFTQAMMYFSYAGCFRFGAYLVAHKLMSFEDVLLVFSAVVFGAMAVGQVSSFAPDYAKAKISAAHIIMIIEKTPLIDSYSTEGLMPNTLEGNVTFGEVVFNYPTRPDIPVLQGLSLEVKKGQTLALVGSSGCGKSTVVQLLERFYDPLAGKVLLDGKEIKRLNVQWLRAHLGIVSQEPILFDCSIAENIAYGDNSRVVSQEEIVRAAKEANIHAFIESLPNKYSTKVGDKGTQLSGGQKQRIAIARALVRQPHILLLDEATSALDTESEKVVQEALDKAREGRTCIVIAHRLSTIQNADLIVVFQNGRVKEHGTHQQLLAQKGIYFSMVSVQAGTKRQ

With `CN1C(=N)N[C@](C)(c2sc(-c3nnc(-c4ccccc4)o3)cc2Cl)CS1(=O)=O` [Example 20], on human P-glycoprotein, the “Pgp Mdr1 ER” value stood at 1.3. The Ki in series [1] is 106 nM; in series [2] it was 7.76 nM.
Regarding `CN1C(=N)N[C@](C)(c2sc(-c3nnc(-c4ccc(F)cc4)o3)cc2Cl)CS1(=O)=O` [Example 22], the “Pgp Mdr1 ER” value at human P-glycoprotein is recorded as 1.4. Moreover, the Ki in series [1] is 65.5 nM; in series [2] it was 13 nM.

As usually defined, the Ki is the dissociation constant of the complex between target and ligand, obtained from inhibition or displacement.
